Source: patent US20240400521A1, “QUINAZOLINE COMPOUND, COMPOSITION, AND APPLICATION THEREOF” (BEIJING SCITECH-MQ PHARMACEUTICALS LIMITED, priority 2021, published 2024)
Read-outs that look alike come from different tables or passages of the source.

Key:
[1] = Pharmacokinetics in SD rats after single oral and intravenous administration; type: in vivo; conditions: rat; for concentration at 0 hr: time point 0 hr; for concentration at 0.25 hr: time point 0.25 hr; for concentration at 0.5 hr: time point 0.5 hr; for concentration at 1 hr: time point 1 hr; for concentration at 2 hr: time point 2 hr; for concentration at 4 hr: time point 4 hr; for concentration at 7 hr: time point 7 hr
Protocol: (§1) In this assay, the pharmacokinetic characteristics and ability to penetrate the blood-brain barrier of the compounds of the present application were assayed after administration of some of the compounds of the present application to SD rats by single oral administration and intravenous injection.
(§2) • 1. Intravenous (IV) injection group: an appropriate amount of the assay compound was weighed, and completely dissolved in an appropriate volume of vehicle (DMSO/Solutol/H2O=5/10/85 V/V/V with 2 times mole of HCl). The mixture was stirred, vortexed and/or sonicated. Once a solution was obtained, the vehicle was gradually added to a final volume to reach the target concentration. The solution was vortexed, and sonicated to obtain a homogeneous solution. The solution was filtered through a 0.22 μm PVDF membrane. • 2. Oral (PO) group: an appropriate amount of the assay compound was weighed, and completely dissolved in an appropriate volume of vehicle (DMSO/Solutol/H2O=5/10/85 V/V/V with 2 times mole of HCl). The mixture was stirred, vortexed and/or sonicated. Once a solution was obtained, the vehicle was gradually added to a final volume to reach the target concentration. The solution was vortexed, and sonicated to obtain a homogeneous solution. (iii) Administration and Sampling of Rats
(§3) Meanwhile, the IV group was not fasted and the PO group was fasted overnight (>12 hrs) and given food 2 hrs after drug administration. All animals had free access to water. The dosing regimen and pharmacokinetic sampling regimen are given in Table 6 and Table 7 below, respectively.
(§4) Rats were administered according to the above regimen, and blood and brain tissue samples were collected and processed at predetermined time points (collection and processing were performed according to conventional methods in the art).
(§5) Brains were weighed and homogenized by adding 4-fold homogenizing solution (acetonitrile/water=1/1). Six times volume of acetonitrile was added respectively to the whole blood samples and brain homogenate. The mixture was vortexed for 1 min and then centrifuged at 4° C., 4500 rpm for 15 min. The supernatant was diluted 2-fold with ultra-pure water, and the samples were analyzed by LC/MS.
Pharmacokinetic parameters were calculated using WinNonlin software. The following pharmacokinetic parameters were calculated if appropriate plasma drug concentration-time data were available: CL (clearance); Vd (apparent volume of distribution); T1/2 (elimination half-life time); Cmax (peak concentration); Tmax (time to peak); AUC (area under plasma drug concentration-time curve); MRT (mean retention time); F % (bioavailability).

[2] = test system: HCC-827 cells; assay: Inhibition of cell proliferation, CTG method, HCC-827; type: cell-based; conditions: Homo sapiens, HCC827, 72 hours
Text: The present application examined the in vitro anti-proliferative activity of the compounds of the present disclosure against in vitro cultured HCC-827, Ba/F3-EGFR-VIII and Ba/F3 EGFR D770_N771insSVD cell lines by CTG method.
Reagents and consumables: RPMI1640 (ThermoFisher, Cat. No. C11875500BT); DMEM (ThermoFisher, C11995500BT); fetal bovine serum (Hyclone, Cat. No. SV30087.03); 0.25% trypsin-EDTA (ThermoFisher, Cat. No. 25200072); penicillin-streptomycin (Hyclone, Cat. No. SV30010); DMSO (Life Science, Cat. No. 0231-500ML); CTG assay kit (Promega, Cat. No. G9243); 96-well plate (Corning, Cat. No. 3599); multifunctional plate reader (Perkin Elmer, Cat. No. Envision)
Cell lines: HCC-827 (from ATCC), Ba/F3-EGFR-VIII and Ba/F3 EGFR D770_N771insSVD (all from KYinno Biotechnology (Beijing) Co., Ltd.); all of the above cells were cultured with RPMI1640 medium containing 10% fetal bovine serum, 100 U/mL penicillin, and 100 μg/mL streptomycin in the culture process, and HCC-827 was cultured with DMEM medium containing 10% fetal bovine serum, 100 U/mL penicillin, and 100 μg/mL streptomycin.
• 1. The assay compound was dissolved with DMSO to form a stock solution and a gradient dilution was performed, followed by dilution with the corresponding medium to obtain a solution with 5-fold working concentration. • 2. Cells in logarithmic growth phase were adjusted to specific cell densities by dilution with culture medium, and 80 μL of cell suspension was added to a 96-well plate, such that plating densities of cells of HCC-827, Ba/F3-EGFR-VIII and Ba/F3 EGFR D770_N771insSVD were all 3000 cells/well. The cells of Ba/F3-EGFR-VIII and Ba/F3 EGFR D770_N771insSVD were used directly in the next step (treatment with compound), whereas the HCC-827 needed to be cultured overnight in a 37° C., 5% carbon dioxide gas incubator to adhere to the wall, and then treated with compounds. • 3. 20 μL of compound solution was added to each well of the 96-well plate that had been inoculated with cells. The highest concentration of the assayed compound was 10 μM, 4-fold serial dilution, a total of 9 concentrations, and duplicate wells. A control group without compound was also set up. • 4. The cells were cultured for another 72 hours, and then cell viability was detected by CTG assay kit. Signal values were read with a multifunctional plate reader (Perkin Elmer). GraphPad Prism software was used to create a dose-response curve and IC50 was calculated.

[3] = Ability to penetrate the blood-brain barrier: brain and whole blood concentration in SD rats; type: in vivo; conditions: rat
Protocol: as §1, §2, §3, §4, §5

[4] = SD, plasma, IV 3 mg/kg, read-out: Plasma drug concentration
[5] = SD, plasma, PO 10 mg/kg, read-out: Plasma drug concentration

- AUC(0-inf) ([1]; SD, plasma, IV 3 mg/kg): 724 ± 105 ng·h/mL
- AUC(0-t) ([1]; SD, plasma, IV 3 mg/kg): 709 ± 96 ng·h/mL
- Vd ([1]; SD, plasma, IV 3 mg/kg): 8.76 ± 0.67 L/kg
- half-life ([1]; SD, plasma, IV 3 mg/kg): 1.45 ± 0.09 h
- concentration at 0 hr [1, 4]: 0 ng/mL
- concentration at 0.083 hr ([1]; SD, plasma, IV 3 mg/kg, time point 0.083 hr, read-out: Plasma drug concentration): 888 ± 106 ng/mL
- concentration at 0.25 hr [1, 4]: 494 ± 121 ng/mL
- concentration at 0.5 hr [1, 4]: 365 ± 48 ng/mL
- concentration at 1 hr [1, 4]: 175 ± 23 ng/mL
- concentration at 2 hr [1, 4]: 78.2 ± 28.7 ng/mL
- concentration at 4 hr [1, 4]: 18.8 ± 8.7 ng/mL
- concentration at 7 hr [1, 4]: 7.05 ± 3.77 ng/mL
- AUC(0-inf) ([1]; SD, plasma, PO 10 mg/kg): 1780 ± 178 ng·h/mL
- AUC(0-t) ([1]; SD, plasma, PO 10 mg/kg): 1730 ± 170 ng·h/mL
- Cmax ([1]; SD, plasma, PO 10 mg/kg): 281 ± 73 ng/mL
- Tmax ([1]; SD, plasma, PO 10 mg/kg): 1 h
- bioavailability ([1]; SD, plasma, PO 10 mg/kg): 73.6 ± 7.4%
- half-life ([1]; SD, plasma, PO 10 mg/kg): 3.17 ± 1.22 h
- concentration at 0 hr [1, 5]: 0 ng/mL
- concentration at 0.25 hr [1, 5]: 83.2 ± 29.9 ng/mL
- concentration at 0.5 hr [1, 5]: 227 ± 58 ng/mL
- concentration at 1 hr [1, 5]: 281 ± 73 ng/mL
- concentration at 2 hr [1, 5]: 249 ± 74 ng/mL
- concentration at 4 hr [1, 5]: 77.7 ± 7.3 ng/mL
- concentration at 7 hr [1, 5]: 72.6 ± 25.5 ng/mL
- concentration at 24 hr ([1]; SD, plasma, PO 10 mg/kg, time point 24 hr, read-out: Plasma drug concentration): 14.2 ± 19.7 ng/mL
- Cl_obs ([1]; IV 3 mg/kg): 70.0 ± 9.5 mL/min/kg
- IC50 [2]: ≤ 5 nM
- Kp at 2 hours ([3]; SD, brain/blood, PO 10 mg/kg, 2 hours after administration, read-out: Brain/blood ratio): 3.06
- concentration at 2 hours ([3]; SD, brain, PO 10 mg/kg, 2 hours after administration, read-out: Brain concentration): 1470 ng/g
- concentration at 2 hours ([3]; SD, plasma, PO 10 mg/kg, 2 hours after administration, read-out: Plasma drug concentration): 480 ng/mL
Structure (SMILES): COc1c(NC(=O)/C=C/CN(C)C)ccc2ncnc(Nc3cccc(Cl)c3F)c12 [Example 1, (E)-N-(4-((3-chloro-2-fluorophenyl)amino)-5-methoxyquinazolin-6-yl)-4-(dimethylamino)but-2-enamide]
- ability to penetrate the blood-brain barrier (in words) [3]: excellent ability to penetrate the blood-brain barrier
